Tests used:
Format in all cases: toxicity, cell-based
HEK-293T = assay: Incucyte cell viability with HEK293T; conditions: human, 10 µM, compound concentration 10 uM
U2OS = assay: Incucyte cell viability with U2OS; conditions: human, 10 µM, compound concentration 10 uM
Fibroblast = assay: Incucyte cell viability with human fibroblast; conditions: 10 µM, compound concentration 10 uM
[1] = 0 h, replicate number 1, timepoint 0 hours
[2] = 0 h, replicate number 2, timepoint 0 hours
[3] = 12 h, replicate number 1, timepoint 12 hours
[4] = 18 h, replicate number 1, timepoint 18 hours
[5] = 24 h, replicate number 1, timepoint 24 hours
[6] = 6 h, replicate number 1, timepoint 6 hours
[7] = 12 h, replicate number 2, timepoint 12 hours
[8] = 18 h, replicate number 2, timepoint 18 hours
[9] = 24 h, replicate number 2, timepoint 24 hours
[10] = 6 h, replicate number 2, timepoint 6 hours
Also: unitless GR value; below 1 slowed growth and below 0 cell loss.

SMILES | Growth Rate (HEK-293T; [1]) | Growth Rate (HEK-293T; [2]) | Growth Rate (HEK-293T; [3]) | Growth Rate (HEK-293T; [4]) | Growth Rate (HEK-293T; [5]) | Growth Rate (U2OS; [1]) | Growth Rate (U2OS; [2]) | Growth Rate (U2OS; [7]) | Growth Rate (U2OS; [8]) | Growth Rate (U2OS; [9]) | Growth Rate (Fibroblast; [6]) | Growth Rate (Fibroblast; [10]) | Growth Rate (Fibroblast; [3]) | Growth Rate (Fibroblast; [7]) | Growth Rate (Fibroblast; [4]) | Growth Rate (Fibroblast; [8]) | Growth Rate (Fibroblast; [5]) | Growth Rate (Fibroblast; [9]) | Growth Rate (HEK-293T; [10]) | Growth Rate (HEK-293T; [7]) | other results
COC[C@@H](c1ccc(C(F)(F)F)cc1)N1CCN(C2(C)CCN(C(=O)c3c(C)ncnc3C)CC2)C[C@@H]1C.O=C(O)/C=C\C(=O)O [VICRIVIROC MALEATE] | 0.38 | -1 | 0.66 | 0.49 | 0.39 | -0.67 | -0.31 | 0.98 | 0.98 | 0.97 | -0.4 | 0.52 | 0.17 | 0.68 | 0.48 | 0.79 | 0.67 | 0.83 |  |  | Growth Rate (U2OS; [6]): 0.58; Growth Rate (U2OS; [3]): 0.57; Growth Rate (U2OS; [4]): 0.7; Growth Rate (U2OS; [5]): 0.8
Cc1cc(Cn2nnc3c(-c4ccco4)nc(N)nc32)ccc1N [VIPADENANT] | 0.37 | 0.5 |  |  |  |  | -1 |  |  |  | 0.45 |  | 0.08 |  | 0.23 | 0.81 | 0.17 |  | 0.84 | 0.95 | Growth Rate (U2OS; [4]): 0.79; Growth Rate (Fibroblast; [1]): 0.03; Growth Rate (Fibroblast; [2]): 0.35
CS(=O)(=O)c1ccc(C(=O)Nc2ccc(Cl)c(-c3ccccn3)c2)c(Cl)c1 [VISMODEGIB] | 1 | 0.86 | 0.8 | 0.81 | 0.83 |  | -1 | 0.78 | 0.84 | 0.86 | 0.27 | 0.96 | 0.7 | 0.84 | 0.67 | 0.59 | 0.29 | 0.73 | 0.75 | 0.84 | Growth Rate (HEK-293T; [6]): 0.99; Growth Rate (HEK-293T; [8]): 0.92; Growth Rate (U2OS; [6]): 0.94; Growth Rate (U2OS; [10]): 0.8
CCOC(=O)N[C@@H]1CC[C@@H]2[C@@H](C1)C[C@H]1C(=O)O[C@H](C)[C@H]1[C@H]2/C=C/c1ccc(-c2cccc(F)c2)cn1 [VORAPAXAR] |  |  | 0.42 | 0.48 | 0.45 | -0.64 |  | 0.96 | 0.88 | 0.9 | 0.13 | -0.65 | -0.08 | -0.18 | -0.15 | -0.11 | 0.18 | 0.15 |  | 0.85 | Growth Rate (HEK-293T; [6]): 0.72; Growth Rate (HEK-293T; [8]): 0.87; Growth Rate (HEK-293T; [9]): 0.95
O=C(NCCNCC(O)COc1ccc(O)cc1)N1CCOCC1.O=C(NCCNCC(O)COc1ccc(O)cc1)N1CCOCC1.O=C(O)/C=C/C(=O)O (centres undefined) [XAMOTEROL FUMARATE] | 0.82 |  |  |  |  | 0.31 | -1 |  |  |  |  |  |  |  |  |  |  |  | 0.64 | 0.95 | Growth Rate (Fibroblast; [1]): -0.24; Growth Rate (Fibroblast; [2]): -0.01
